Here are results for 36 molecules from patent US9765075B2, “Substituted bridged urea analogs as sirtuin modulators” (GLAXOSMITHKLINE LLC, priority 2013, dated 2017).

The assay addresses T1, SIRT1 (Homo sapiens, UniProt Q96EB6).
T1 sequence (Q96EB6 1-747): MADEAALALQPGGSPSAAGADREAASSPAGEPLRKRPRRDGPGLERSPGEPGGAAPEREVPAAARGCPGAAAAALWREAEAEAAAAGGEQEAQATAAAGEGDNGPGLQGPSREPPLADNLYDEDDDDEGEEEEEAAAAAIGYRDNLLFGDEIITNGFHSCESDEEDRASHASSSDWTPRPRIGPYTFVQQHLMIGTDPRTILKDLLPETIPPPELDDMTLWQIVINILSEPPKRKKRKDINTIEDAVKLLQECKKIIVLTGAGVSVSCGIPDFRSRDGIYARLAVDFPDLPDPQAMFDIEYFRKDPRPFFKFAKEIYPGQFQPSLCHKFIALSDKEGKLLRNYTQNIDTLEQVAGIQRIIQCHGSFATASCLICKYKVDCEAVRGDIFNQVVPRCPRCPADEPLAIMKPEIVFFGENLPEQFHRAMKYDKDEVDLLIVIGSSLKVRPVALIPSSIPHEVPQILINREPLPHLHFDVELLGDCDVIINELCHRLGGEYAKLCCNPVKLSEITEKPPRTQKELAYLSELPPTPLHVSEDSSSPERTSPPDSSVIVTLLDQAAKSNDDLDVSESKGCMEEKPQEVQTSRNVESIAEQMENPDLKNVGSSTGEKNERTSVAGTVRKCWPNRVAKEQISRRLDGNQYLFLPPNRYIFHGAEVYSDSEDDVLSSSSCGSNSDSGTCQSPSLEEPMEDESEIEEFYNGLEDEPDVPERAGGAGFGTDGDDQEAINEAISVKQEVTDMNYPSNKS
Briefly: Trp mass spectrometry assay (SIRT1 activation). It is filed as biochemical. Particulars: Trp mass spectrometry assay; for Emax: percent maximum fold activation of SIRT1, read-out: Tryp % Fold Act; for Tryp AVG EC1.5 (μM): EC1.5 = concentration of test compound that results in 150% activation of SIRT1. From the text:
Mass spectrometry based assays were used to identify modulators of SIRT1 activity. […] The peptide was labeled with the fluorophore 5TMR (excitation 540 nm/emission 580 nm) at the C-terminus. The sequence of the peptide substrate was based on p53 with several modifications. In addition, the methionine residue naturally present in the sequence was replaced with the norleucine because the methionine may be susceptible to oxidation during synthesis and purification. The Trp based assay utilized a peptide having an amino acid residues as follows: Ac-R-H-K-K(Ac)-W-NH2 (SEQ ID NO: 2).
The Trp mass spectrometry assay was conducted as follows. 0.5 μM peptide substrate and 120 μM βNAD^+ were incubated with 10 nM SIRT1 for 25 minutes at 25° C. in a reaction buffer (50 mM HEPES pH 7.5, […] NaCl, 1 mM DTT, 0.05% BSA). The SIRT1 protein was obtained by cloning the SirT1 gene into a T7-promoter containing vector, which was then expressed in BL21(DE3) bacterial cells and purified as described in further detail below. Test compound was added at varying concentrations to this reaction mixture and the resulting reactions were monitored. After the 25 minute incubation with SIRT1, 10 μL of 10% formic acid was added to stop the reaction. The resulting reactions were sealed and frozen for later mass spec analysis. The relative SIRT1 activity was then determined by measuring the amount of 0-acetyl-ADP-ribose (OAADPR) formed (or, alternatively, the amount of deacetylated Trp peptide generated) by the NAD-dependent sirtuin deacetylation reaction in the presence of varying concentrations of the test compound versus control reactions lacking the test compound. The degree to which the test agent activated deacetylation by SIRT1 was expressed as EC1.5 (i.e., the concentration of compound required to increase SIRT1 activity by 50% over the control lacking test compound), and Percent Maximum Activation (i.e., the maximum activity relative to control (100%) obtained for the test compound).
A control for activation of sirtuin activity was conducted using 10 nM of sirtuin protein, with 1 μL of DMSO in place of compound, to determine the amount of deacetylation of the substrate at a given time point within the linear range of the assay. This time point was the same as that used for test compounds and, within the linear range, the endpoint represents a change in velocity.
For the above assay, SIRT1 protein was expressed and purified as follows. The SirT1 gene was cloned into a T7-promoter containing vector and transformed into BL21(DE3). The protein was expressed by induction with 1 mM IPTG as an N-terminal His-tag fusion protein at 18° C. overnight and harvested at 30,000×g. Cells were lysed with lysozyme in lysis buffer (50 mM Tris-HCl, 2 mM Tris[2-carboxyethyl] phosphine (TCEP), 10 μM ZnCl2, 200 mM NaCl) and further treated with sonication for 10 min for complete lysis. The protein was purified over a Ni-NTA column (Amersham) and fractions containing pure protein were pooled, concentrated and run over a sizing column (Sephadex S200 26/60 global). The peak containing soluble protein was collected and run on an Ion-exchange column (MonoQ). Gradient elution (200 mM-500 mM NaCl) yielded pure protein. This protein was concentrated and dialyzed against dialysis buffer (20 mM Iris-HCl, 2 mM TCEP) overnight. The protein was aliquoted and frozen at −80° C. until further use.

The structures appear in SMILES notation.

Consider `CC(C)(C)c1csc(NC(=O)N2c3nc(-c4cccc(C(F)(F)F)c4)ccc3N3CC[C@H]2C3)n1` [Example 72], for which the Emax was no less than 150%. Same read-out and setting: as for `O=C(Nc1ccnc(OC[C@H](O)CO)c1)N1c2nc(-c3cccc(F)c3)ccc2N2CC[C@H]1C2` [Example 73], the figure is no less than 150%; as for `O=C(Nc1ccncc1F)N1c2nc(-c3cccc(F)c3)ccc2N2CC[C@H]1C2` [Example 74], no less than 150%. On to `CC(=O)c1sc(NC(=O)N2c3nc(-c4cccc(C(F)(F)F)c4)ccc3N3CC[C@H]2C3)nc1C` [Example 75], for which the “Tryp AVG EC1.5 (μM)” value was “A (EC1.5<1 μM)” and the Emax was no less than 150%. The matching figures for `COc1ccc(C)nc1NC(=O)N1c2nc(-c3cccc(C(F)(F)F)c3)ccc2N2CC[C@H]1C2` [Example 77]: “B (EC1.5 1-25 μM)” and no less than 150%.

For the molecule `CC(=O)c1cc(F)c(NC(=O)N2c3nc(-c4cccc(C(F)(F)F)c4)ccc3N3CC[C@H]2C3)c(F)c1` [Example 78], the Emax was no less than 150%.

In the case of `Cc1cnc(NC(=O)N2c3nc(-c4cccc(C(F)(F)F)c4)ccc3N3CC[C@H]2C3)nc1-c1ccccc1` [Example 79], the Emax was no less than 150%. For the molecule `Cc1csc2nc(NC(=O)N3c4nc(-c5cccc(C(F)(F)F)c5)ccc4N4CC[C@H]3C4)nn12` [Example 80], the Emax is no less than 150%. The same measure, in the same setting: the same measure for `O=C(Nc1cc[nH]c(=O)n1)N1c2nc(-c3cccc(C(F)(F)F)c3)ccc2N2CC[C@H]1C2` [Example 82]: no less than 150%. Consider `O=C(Nc1cccc2nccnc12)N1c2nc(-c3cccc(C(F)(F)F)c3)ccc2N2CC[C@H]1C2` [Example 83], for which the “Tryp AVG EC1.5 (μM)” value was “A (EC1.5<1 μM)” and the Emax is no less than 150%. `Cc1ccc2ncccc2c1NC(=O)N1c2nc(-c3cccc(C(F)(F)F)c3)ccc2N2CC[C@H]1C2` [Example 84]: the Emax is less than 150%. The same measure, in the same setting: the same measure for `O=C(Nc1ccccn1)N1c2nc(-c3cccc(C(F)(F)F)c3)ccc2N2CC(O)C1C2` (stereo not shown) [Example 85]: no less than 150%; for `Cc1cc2c(NC(=O)N3c4nc(-c5cccc(C(F)(F)F)c5)ccc4N4CC[C@H]3C4)cccc2nn1` [Example 86]: no less than 150%. For `Cn1ncc2cc(NC(=O)N3c4nc(-c5cccc(C(F)(F)F)c5)ccc4N4CC[C@H]3C4)ccc21` [Example 87], the “Tryp AVG EC1.5 (μM)” value was “A (EC1.5<1 μM)” and the Emax was no less than 150%. On to `O=C(Nc1nc2ccccc2s1)N1c2nc(-c3cccc(C(F)(F)F)c3)ccc2N2CC[C@H]1C2` [Example 90], for which the “Tryp AVG EC1.5 (μM)” value was “A (EC1.5<1 μM)” and the Emax was no less than 150%.

On to `Cc1nc(NC(=O)N2c3nc(-c4cccc(C(F)(F)F)c4)ccc3N3CC[C@H]2C3)nc2c1CCC2` [Example 91], for which the “Tryp AVG EC1.5 (μM)” value is “B (EC1.5 1-25 μM)” and the Emax is no less than 150%.

Regarding `Cc1nn(C)cc1NC(=O)N1c2nc(-c3cccc(C(F)(F)F)c3)ccc2N2CC[C@H]1C2` [Example 92], the “Tryp AVG EC1.5 (μM)” value is listed as “B (EC1.5 1-25 μM)” and the Emax is no less than 150%. The matching figures for `O=C1OCc2ccc(NC(=O)N3c4nc(-c5cccc(C(F)(F)F)c5)ccc4N4CC[C@H]3C4)cc21` [Example 93]: “A (EC1.5<1 μM)” and no less than 150%. The matching figures for `Cc1cc(C(F)(F)F)nc(NC(=O)N2c3nc(-c4cccc(C(F)(F)F)c4)ccc3N3CC[C@H]2C3)n1` [Example 94]: “B (EC1.5 1-25 μM)” and no less than 150%. Taken in the same sequence, the figures for `O=C(Nc1ccc2c(c1)OCCCO2)N1c2nc(-c3cccc(C(F)(F)F)c3)ccc2N2CC[C@H]1C2` [Example 95] were “A (EC1.5<1 μM)” and no less than 150%. In the case of `O=C(Nc1ccncc1Cl)N1c2nc(-c3cccc(C(F)(F)F)c3)ccc2N2CC[C@H]1C2` [Example 96], the “Tryp AVG EC1.5 (μM)” value is “B (EC1.5 1-25 μM)” and the Emax is no less than 150%. Taken in the same sequence, the figures for `O=C(Nc1ccncn1)N1c2nc(C3CCCC(C(F)(F)F)C3)ccc2N2CC[C@H]1C2` (stereo partly shown) [Example 98] were “B (EC1.5 1-25 μM)” and no less than 150%. Taken in the same sequence, the figures for `O=C(Nc1cccnc1)N1c2nc(C3CCCC(C(F)(F)F)C3)ccc2N2CC[C@H]1C2` (stereo partly shown) [Example 99] were “A (EC1.5<1 μM)” and no less than 150%.

On to `Cc1cnccc1NC(=O)N1c2nc(C3CCCC(C(F)(F)F)C3)ccc2N2CC[C@H]1C2` (stereo partly shown) [Example 100], for which the “Tryp AVG EC1.5 (μM)” value is given as “B (EC1.5 1-25 μM)” and the Emax is no less than 150%. The matching figures for `O=C(Nc1cnccn1)N1c2nc(-c3cccc(Cl)c3)ccc2N2CC[C@H]1C2` [Example 101]: “A (EC1.5<1 μM)” and no less than 150%. The matching figures for `Cc1nc(NC(=O)N2c3nc(-c4cccc(Cl)c4)ccc3N3CC[C@H]2C3)sc1C` [Example 102]: “A (EC1.5<1 μM)” and no less than 150%.

On to `COc1cc(NC(=O)N2c3nc(-c4cccc(Cl)c4)ccc3N3CC[C@H]2C3)nc(OC)n1` [Example 103], for which the “Tryp AVG EC1.5 (μM)” value was “B (EC1.5 1-25 μM)” and the Emax is no less than 150%. Consider `COc1cc(NC(=O)N2c3nc(-c4cccc(Cl)c4)ccc3N3CC[C@H]2C3)ncn1` [Example 104], for which the “Tryp AVG EC1.5 (μM)” value was “B (EC1.5 1-25 μM)” and the Emax is no less than 150%. For the molecule `Cc1cc(C)nc(NC(=O)N2c3nc(-c4cccc(Cl)c4)ccc3N3CC[C@H]2C3)c1` [Example 105], the “Tryp AVG EC1.5 (μM)” value is given as “B (EC1.5 1-25 μM)” and the Emax is no less than 150%. With `Cc1cccnc1NC(=O)N1c2nc(-c3cccc(Cl)c3)ccc2N2CC[C@H]1C2` [Example 106], the “Tryp AVG EC1.5 (μM)” value is “C (EC1.5>25 μM)” and the Emax was no less than 150%.

Turning to `O=C(Nc1cccnc1)N1c2nc(-c3cccc(Cl)c3)ccc2N2CC[C@H]1C2` [Example 107], the Emax is no less than 150%. With `Cn1cc(NC(=O)N2c3nc(-c4cccc(Cl)c4)ccc3N3CC[C@H]2C3)cn1` [Example 108], the “Tryp AVG EC1.5 (μM)” value was “B (EC1.5 1-25 μM)” and the Emax is no less than 150%.

Turning to `Cn1ccc(NC(=O)N2c3nc(-c4cccc(Cl)c4)ccc3N3CC[C@H]2C3)n1` [Example 109], the “Tryp AVG EC1.5 (μM)” value is listed as “B (EC1.5 1-25 μM)” and the Emax was no less than 150%. Take `O=C(Nc1ccncn1)N1c2nc(-c3cccc(Cl)c3)ccc2N2CC[C@H]1C2` [Example 110]: the “Tryp AVG EC1.5 (μM)” value is given as “A (EC1.5<1 μM)” and the Emax is no less than 150%. The matching figures for `CC1CN2CC1N(C(=O)Nc1ccncc1)c1nc(-c3cccc(C(F)(F)F)c3)ccc12` (stereo not shown) [Example 114]: “B (EC1.5 1-25 μM)” and no less than 150%.

Turning to `Cn1cc2cc(NC(=O)N3c4nc(-c5cccc(Cl)c5)ccc4N4CC[C@H]3C4)ccc2n1` [Example 118], the “Tryp AVG EC1.5 (μM)” value is “A (EC1.5<1 μM)” and the Emax is no less than 150%.
